The values that follow are results of earlier work, collected in publication PMC7599555 (Biomedicines, 2020).

This series concerns TTX-sensitive channels; NaV1.8.

For the compound `NC1=N[C@H](O)[C@H]2[C@H]3O[C@]4(O)O[C@@H]([C@@H](O)[C@@]2(N1)[C@@H]4O)[C@]3(O)CO` [TTX, tetrodotoxin], the “inhibition of TTX-sensitive channels and NaV1.8” value is “fully inhibits TTX-sensitive channels but not NaV1.8”.
